Test results as given in PubChem BioAssay (NCI).
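Method: 48-hour compound exposure of cells in 96-well plates, five concentrations, linear interpolation of endpoints. The concentration for full growth arrest is given as TGI.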

Legend:
Assay in all cases: growth of human tumour cells (NCI), 48 h
KM12 colon = tested on: KM12 colon
COLO 205 colon = tested on: COLO 205 colon
SR leukemia = tested on: SR leukemia
SNB-19 CNS = tested on: SNB-19 CNS
BT-549 breast = tested on: BT-549 breast
MDA-MB-231 breast = tested on: MDA-MB-231 breast
CAKI-1 renal = tested on: CAKI-1 renal
SF-295 CNS = tested on: SF-295 CNS
U251 CNS = tested on: U251 CNS
SF-268 CNS = tested on: SF-268 CNS
786-0 renal = tested on: 786-0 renal
HCT-15 colon = tested on: HCT-15 colon
UACC-257 melanoma = tested on: UACC-257 melanoma
NCI-H23 lung = tested on: NCI-H23 lung
TK-10 renal = tested on: TK-10 renal
CCRF-CEM leukemia = tested on: CCRF-CEM leukemia
UO-31 renal = tested on: UO-31 renal
LOX IMVI melanoma = tested on: LOX IMVI melanoma
IGROV1 ovarian = tested on: IGROV1 ovarian
HCC-2998 colon = tested on: HCC-2998 colon
HOP-62 NSCLC = tested on: HOP-62 NSCLC
NCI-H226 lung = tested on: NCI-H226 lung
MDA-MB-435 = tested on: MDA-MB-435
A498 renal = tested on: A498 renal
SF-539 CNS = tested on: SF-539 CNS
SK-MEL-5 melanoma = tested on: SK-MEL-5 melanoma
HOP-92 NSCLC = tested on: HOP-92 NSCLC
K-562 leukemia = tested on: K-562 leukemia
SNB-75 CNS = tested on: SNB-75 CNS
EKVX NSCLC = tested on: EKVX NSCLC
HL-60(TB) leukemia = tested on: HL-60(TB) leukemia
OVCAR-8 ovarian = tested on: OVCAR-8 ovarian
MALME-3M melanoma = tested on: MALME-3M melanoma
RPMI-8226 leukemia = tested on: RPMI-8226 leukemia
SN12C renal = tested on: SN12C renal
DU-145 prostate = tested on: DU-145 prostate
HS 578T breast = tested on: HS 578T breast
MCF7 breast = tested on: MCF7 breast
MOLT-4 leukemia = tested on: MOLT-4 leukemia
SK-MEL-28 melanoma = tested on: SK-MEL-28 melanoma
OVCAR-4 ovarian = tested on: OVCAR-4 ovarian
A549 NSCLC = tested on: A549 NSCLC
NCI-H522 lung = tested on: NCI-H522 lung
SW-620 colon = tested on: SW-620 colon
NCI-H460 lung = tested on: NCI-H460 lung
OVCAR-3 ovarian = tested on: OVCAR-3 ovarian
ACHN renal = tested on: ACHN renal
HT29 colon = tested on: HT29 colon
PC-3 prostate = tested on: PC-3 prostate
MDA-N = tested on: MDA-N
HCT-116 colon = tested on: HCT-116 colon
OVCAR-5 ovarian = tested on: OVCAR-5 ovarian
NCI/ADR-RES ovarian = tested on: NCI/ADR-RES ovarian
RXF 393 renal = tested on: RXF 393 renal
SK-OV-3 ovarian = tested on: SK-OV-3 ovarian
UACC-62 melanoma = tested on: UACC-62 melanoma
M14 melanoma = tested on: M14 melanoma
SK-MEL-2 melanoma = tested on: SK-MEL-2 melanoma
T-47D breast = tested on: T-47D breast

With `O=C(Nc1nc(C23CC4CC(CC(C4)C2)C3)cs1)c1cc2ccccc2oc1=O` the TGI (KM12 colon) was greater than 100 µM, the TGI (COLO 205 colon) was greater than 100 µM and the TGI (SR leukemia) was greater than 100 µM. The TGI (SNB-19 CNS) was greater than 100 µM, the TGI (BT-549 breast) was greater than 100 µM and the TGI (MDA-MB-231 breast) was greater than 100 µM. For the same compound, the TGI (CAKI-1 renal) was greater than 100 µM, the TGI (SF-295 CNS) was greater than 100 µM and the TGI (U251 CNS) was greater than 100 µM. For the same compound, the TGI (SF-268 CNS) was greater than 100 µM, the TGI (786-0 renal) was greater than 100 µM and the TGI (HCT-15 colon) was greater than 100 µM. For the same compound, the TGI (UACC-257 melanoma) was greater than 100 µM, the TGI (NCI-H23 lung) was greater than 100 µM and the TGI (TK-10 renal) was greater than 100 µM. It also gave a TGI (CCRF-CEM leukemia) greater than 100 µM, a TGI (UO-31 renal) greater than 100 µM and a TGI (LOX IMVI melanoma) greater than 100 µM. The TGI (IGROV1 ovarian) was greater than 100 µM, the TGI (HCC-2998 colon) was greater than 100 µM and the TGI (HOP-62 NSCLC) was greater than 100 µM. It also gave a TGI (NCI-H226 lung) greater than 100 µM, a TGI (MDA-MB-435) greater than 100 µM and a TGI (A498 renal) greater than 100 µM. It also gave a TGI (SF-539 CNS) greater than 100 µM, a TGI (SK-MEL-5 melanoma) greater than 100 µM and a TGI (HOP-92 NSCLC) greater than 100 µM. The TGI (K-562 leukemia) was greater than 100 µM, the TGI (SNB-75 CNS) was greater than 100 µM and the TGI (EKVX NSCLC) was greater than 100 µM. It also gave a TGI (HL-60(TB) leukemia) greater than 100 µM, a TGI (OVCAR-8 ovarian) greater than 100 µM and a TGI (MALME-3M melanoma) greater than 100 µM. It also gave a TGI (RPMI-8226 leukemia) greater than 100 µM, a TGI (SN12C renal) greater than 100 µM and a TGI (DU-145 prostate) greater than 100 µM. For the same compound, the TGI (HS 578T breast) was greater than 100 µM, the TGI (MCF7 breast) was greater than 100 µM and the TGI (MOLT-4 leukemia) was greater than 100 µM. For the same compound, the TGI (SK-MEL-28 melanoma) was greater than 100 µM, the TGI (OVCAR-4 ovarian) was greater than 100 µM and the TGI (A549 NSCLC) was greater than 100 µM. It also gave a TGI (NCI-H522 lung) greater than 100 µM, a TGI (SW-620 colon) greater than 100 µM and a TGI (NCI-H460 lung) greater than 100 µM. It also gave a TGI (OVCAR-3 ovarian) greater than 100 µM, a TGI (ACHN renal) greater than 100 µM and a TGI (HT29 colon) greater than 100 µM. The TGI (PC-3 prostate) was greater than 100 µM, the TGI (MDA-N) was greater than 100 µM and the TGI (HCT-116 colon) was greater than 100 µM. The TGI (OVCAR-5 ovarian) was greater than 100 µM, the TGI (NCI/ADR-RES ovarian) was greater than 100 µM and the TGI (RXF 393 renal) was greater than 100 µM.
With `COc1ccc2nc(-c3ccc(O)cc3)sc2c1` the TGI (KM12 colon) was 86.9 µM, the TGI (COLO 205 colon) was 44.6 µM and the TGI (SR leukemia) was 22.5 µM. The TGI (SNB-19 CNS) was greater than 100 µM, the TGI (BT-549 breast) was 36.3 µM and the TGI (MDA-MB-231 breast) was 46.9 µM. For the same compound, the TGI (CAKI-1 renal) was 57.5 µM, the TGI (SF-295 CNS) was 42.6 µM and the TGI (U251 CNS) was 36.2 µM. For the same compound, the TGI (SF-268 CNS) was 49.5 µM, the TGI (786-0 renal) was 29.1 µM and the TGI (HCT-15 colon) was 36.5 µM. It also gave a TGI (UACC-257 melanoma) of 39 µM, a TGI (NCI-H23 lung) of 43.6 µM and a TGI (TK-10 renal) of 70.2 µM. For the same compound, the TGI (UO-31 renal) was 30.1 µM, the TGI (LOX IMVI melanoma) was 44.9 µM and the TGI (IGROV1 ovarian) was 36.2 µM. For the same compound, the TGI (SK-OV-3 ovarian) was 91.2 µM, the TGI (NCI-H226 lung) was 45.8 µM and the TGI (MDA-MB-435) was 56 µM. The TGI (A498 renal) was 85.7 µM, the TGI (SF-539 CNS) was 37.1 µM and the TGI (SK-MEL-5 melanoma) was 38 µM. It also gave a TGI (K-562 leukemia) greater than 100 µM, a TGI (EKVX NSCLC) of 35.7 µM and a TGI (HL-60(TB) leukemia) of 53.5 µM. It also gave a TGI (OVCAR-8 ovarian) of 45.1 µM, a TGI (MALME-3M melanoma) of 51.6 µM and a TGI (UACC-62 melanoma) of 42.9 µM. It also gave a TGI (RPMI-8226 leukemia) of 0.678 µM, a TGI (SN12C renal) of 39.5 µM and a TGI (DU-145 prostate) greater than 100 µM. The TGI (MCF7 breast) was greater than 100 µM, the TGI (MOLT-4 leukemia) was 78.3 µM and the TGI (OVCAR-4 ovarian) was 44.5 µM. For the same compound, the TGI (A549 NSCLC) was greater than 100 µM, the TGI (NCI-H522 lung) was 31.2 µM and the TGI (M14 melanoma) was 47.5 µM. The TGI (SW-620 colon) was 44.5 µM, the TGI (NCI-H460 lung) was greater than 100 µM and the TGI (SK-MEL-2 melanoma) was greater than 100 µM. It also gave a TGI (OVCAR-3 ovarian) of 36.2 µM, a TGI (ACHN renal) of 32.5 µM and a TGI (HT29 colon) of 37.2 µM. For the same compound, the TGI (PC-3 prostate) was 45.2 µM, the TGI (MDA-N) was 50.8 µM and the TGI (HCT-116 colon) was 32.7 µM. The TGI (T-47D breast) was 36.7 µM, the TGI (OVCAR-5 ovarian) was 31.6 µM and the TGI (NCI/ADR-RES ovarian) was 72.6 µM. It also gave a TGI (RXF 393 renal) of 40.9 µM.
